Data published in ChEMBL document CHEMBL3352501, “SAR analysis of new anti-TB drugs currently in pre-clinical and clinical development” (Eur J Med Chem, 2014).
In brackets after ≈: the same amount, converted by molar mass.

How the values were obtained:
[1] = test system: Mycobacterium tuberculosis; experiment: Antitubercular activity against multidrug-resistant Mycobacterium tuberculosis clinical isolates assessed as growth inhibition; format: functional
[2] = test system: Mycobacterium tuberculosis; experiment: Antitubercular activity against drug-resistant Mycobacterium tuberculosis clinical isolates assessed as growth inhibition; format: functional

CCc1nc2ccc(Cl)cn2c1C(=O)NCc1ccc(N2CCC(c3ccc(OC(F)(F)F)cc3)CC2)cc1 [TELACEBEC]
MIC90 [1]: < 0.43 nM

CC(C)/N=c1\cc2n(-c3ccc(Cl)cc3)c3ccccc3nc-2cc1Nc1ccc(Cl)cc1 [CLOFAZIMINE]
MIC [2]: 0.108 µg/mL (≈ 0.228 µM)

COc1ncccc1Nc1cc2nc3ccccc3n(-c3ccc(OC(F)(F)F)cc3)c-2c/c1=N\C1CCC(OC)CC1 (stereo not given)
MIC [2]: 0.027 µg/mL (≈ 0.0458 µM)

CC(C)=CCC/C(C)=C/CNCCNC1C2CC3CC(C2)CC1C3 (stereo not given) [SQ109]
MIC [2]: 0.2 µg/mL (≈ 0.605 µM)

COc1nc2ccc(Br)cc2cc1[C@@H](c1ccccc1)[C@@](O)(CCN(C)C)c1cccc2ccccc12 [BEDAQUILINE]
MIC [2]: 0.002 µg/mL (≈ 0.0036 µM)
